Assay results as given in patent US20220395500A1, “SMALL MOLECULE ACTIVATORS OF INTERFERON REGULATORY FACTOR 3 AND METHODS OF USE THEREOF” (Neuralexo, Inc., priority 2020, published 2022).
Read-outs that look alike come from different tables or passages of the source.

What was measured:
[1] = tested on: IRF-Lucia luciferase reporter (ISRE) in THP1-Dual cells; assay: THP1-Dual IRF-Lucia luciferase reporter assay (ISRE activation); format: cell-based, human; details: THP1-Dual; for EC50: Homo sapiens, 8-point dose response
Outline: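 Supernatant luminescence from the ISG54/ISRE-driven Lucia reporter was measured after 24 h exposure to 10 μM compound (LPS 313 ng/mL in control wells).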

[2] = THP1-Dual cytotoxicity (Cell Titer Glo, ATP); format: cell-based, human; details: human, THP1-Dual cells
Outline: (§1)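 CC50, the concentration killing half the cells, was derived from ATP-dependent CellTiter-Glo luminescence. Cells were THP1-Dual (human) and compound was tested as an 8-point dose-response series, with viability read in the same plate.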

SH-SY5Y cells = assay: Gene induction in SH-SY5Y cells (qtPCR); format: cell-based, human; details: 20 μM, 3 hours, preliminary results
Description: FIG. 11 is a bar graph showing that the human-specific IRF activator AV-C induces robust IFIT1 and RSAD2 expression, with no increase in TNF expression. SH-SY5Y cells were treated with 20 μM AV-C for 3 hours. RNA was collected from cell pellets and qtPCR was performed with indicated primers. Values at FIG. 11 are normalized to actin and presented as fold change over vehicle control.
To determine if the human specific IRF activator, AV-C could induce IRF activated genes, the human neuroblastoma cell line SH-SY5Y was stimulated with 20 μM AV-C for 3 hours. […] Specifically, as mentioned, SH-SY5Y cells were treated with 20 μM AV-C for 3 hours. RNA was collected from cell pellets and qtPCR was performed with indicated primers. Values at FIG. 11 are normalized to actin and presented as fold change over vehicle control.

[3] = tested on: IRF-Lucia luciferase reporter (ISRE) in J774-Dual cells; assay: J774-Dual IRF-Lucia luciferase reporter assay (ISRE activation); format: cell-based, mouse; details: J774-Dual
Outline: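 Eight-point dose-response in J774-Dual mouse macrophage-like cells gave EC50, plus CC50 by in-plate CellTiter-Glo, and ISRE:NF-κB ratios. Cells plated 24 h at 37 °C, 5% CO2 without differentiation; supernatant Lucia luciferase and SEAP measured with QUANTI-Luc and QUANTI-Blue.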

THP1-Dual cells = assay: THP1-Dual cytotoxicity (Cell Titer Glo, ATP); format: cell-based, human; details: Human Reporter Cell Line; read-out: Thp1 cytotox CC50
Outline: as §1

J774-Dual cytotoxicity = format: cell-based, mouse; details: mouse, J774-Dual cells, Mouse Reporter Cell Line; read-out: J774 cytotox CC50
Outline: (§2)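 CC50 derived from 8-point concentration series in mouse J774-Dual reporter cells, with viability read by CellTiter-Glo in the same plate. Run in parallel with EC50 and ISRE:NFκB ratio determination for cross-species confirmation.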

J774-Dual cells = assay: J774-Dual cytotoxicity; format: cell-based, mouse; details: Mouse Reporter Cell Line; read-out: J774 cytotox CC50
Outline: as §2

EC50 ([1]; THP1-Dual control compound, read-out: EC50 ISRE activation)	EC50 ([1]; Human Reporter Cell Line, read-out: THP1 IRF EC50)	SMILES	ISRE response, % of LPS maximum ([1]; 25 μM)	IRF signal intensity relative to LPS control ([1]; at its EC50)	CC50 ([2]; THP1-Dual control compound, 8-point dose response, read-out: CC50)	selectivity ratio ([2]; read-out: Selectivity Index (CC50/EC50) (text: toxicity index))	IFIT1 and RSAD2 expression (SH-SY5Y cells)	TNF expression (SH-SY5Y cells)	IRF activation in mouse cells [3]	ISRE response, % of LPS maximum ([3]; 25 μM)	CC50 (THP1-Dual cells)	CC50 (J774-Dual cytotoxicity)	CC50 (J774-Dual cells)
5.3 µM	–	CC(C)c1nnc(N2C(=O)c3oc4ccccc4c(=O)c3C2c2ccccc2F)s1 (centres unmarked) [AV-C, 1-(2-fluorophenyl)-2-(5-isopropyl-1,3,4-thiadiazol-2-yl)-1,2-dihydrochromeno[2,3-c]pyrrole-3,9-dione, reference compound]	75%	~10%	7.9 µM	1.5	increased	no increase	minimal IRF activation	10%	–	–	–
–	~2.5 µM	O=C(Nc1ccc(N2CCN(C(=O)c3ccccc3Cl)CC2)cc1)c1ccc(OCc2ccccc2)cc1 [NA-50]	–	–	–	–	–	–	–	–	13.1 µM	> 25 µM	–
–	–	O=C(Nc1ccc(N2CCN(C(=O)c3ccccc3Cl)CC2)cc1)c1ccc(OCc2ccccc2)cc1 [NA-49]	–	–	–	–	–	–	–	–	27.9 µM	–	> 25 µM
